This series deals with HT-29 human colon tumors. As for the experimental part:
Human Tumor Xenograft Study. An HT-29 human colon cancer cell line was purchased from ATCC (Manassas, Va.). Cells were cultured in DMEM (Dulbecco's Modified Eagle's Medium) from GIBIOBRL (Grand Island, N.Y.) with 10% fetal bovine serum (FBS) supplemented with L-glutamine and Penicillin/Streptomycin. The tumor cells were harvested when cultures reached 80-90% confluence. The supernatants were discarded and the cell pellets were suspended to 1×10^8 cells/ml in DMEM medium without FBS. HT-29 cells (5×10^6) were implanted intradermally on the back of each mouse. Tumor size was monitored by measuring the length (L), width (W), and height (H) of each tumor and calculating tumor volume (Vol=½×4/3π×(L/2)×(W/2)×H).
Mice bearing human tumor cell xenografts were treated with PG490-88 IP daily for 5 days per week. The compound was administered as the sodium salt. CPT-11 was administered IV twice per week. 5-FU was given IP daily for 5 days per week. The stock solutions of each therapeutic agent were diluted in 0.9% NaCl for dosing. The agents were given to mice at 100 μl per 10 g of mouse body weight. Mice were dosed for two weeks, and 0.9% NaCl was used as the vehicle control. Tumor volume was monitored, and toxicity of the chemotherapeutic treatment was monitored by weighing the mice every day.

Where two headings read alike, the source gives them in different places.

Here are results for three compounds from US6620843B2, “Anticancer treatment using triptolide prodrugs” (priority 2001, dated 2003).

As to `O=c1[nH]cc(F)c(=O)[nH]1` [5-FU, 5-fluorouracil, reference compound], under “5-FU 20 mg/kg”, the “tumor growth inhibition (in words)” value is “only slightly inhibited tumor growth”. The “percent increase in mean tumor volume at day 16” value (5-FU 20 mg/kg IP daily 5 days per week, day 16, control group 721%) is listed as 470%. Where the note is “mouse, in vivo”, the “toxicity in tumor-bearing mice” value is listed as “showed signs of toxicity”.

Turning to `CCc1c2c(nc3ccc(OC(=O)N4CCC(N5CCCCC5)CC4)cc13)-c1cc3c(c(=O)n1C2)COC(=O)[C@]3(O)CC` [CPT-11, irinotecan, reference compound], where the note is “CPT-11 22 mg/kg”, the “tumor growth inhibition (in words)” value is on record as “slight to moderate”.

In the case of `CC(C)[C@]12O[C@H]1[C@@H]1O[C@]13[C@]1(O[C@H]1C[C@H]1C4=C(CC[C@@]13C)C(=O)OC4)[C@@H]2OC(=O)CCC(=O)O` [PG490-88, triptolide 14-succinate], the “tumor growth inhibition (in words)” value is “slightly inhibited” (0.125 mg/kg, by day 16); “moderate inhibition” (0.25 mg/kg, by day 16); “strongly inhibited tumor growth and induced tumor regression” (0.75 mg/kg, by day 16). Further, the “tumor growth inhibition, dose dependence (in words)” value (0.125-0.75 mg/kg) is “inhibited HT-29 tumor growth in a dose-dependent manner”. Moreover, the “percent increase in mean tumor volume at day 16” value came to 462% (PG490-88 0.125 mg/kg IP daily 5 days per week, day 16 vs initial value, vehicle control 721%) and 131% (PG490-88 0.25 mg/kg IP daily 5 days per week, day 16 vs initial value, vehicle control 721%). In addition, the “percent decrease in mean tumor volume at day 16 from the initial value” (PG490-88 0.75 mg/kg IP daily 5 days per week, day 16) is on record as 54%. The “mean tumor volume at day 9 (in words)” value (PG490-88 0.75 mg/kg, day 9) is reported as “decreased from the day 5 value to approximately the initial value”.
